The target in this experiment is Sigma-2 receptor (TMEM97) (Rattus norvegicus). The experiment is described as follows: Binding affinity towards Sigma receptor site 2 in rat brain using [3H]DTG as radioligand.

Turning to `c1ccc(CCN2CCC3(CC2)OCc2ccccc23)cc1` [1'-(2-phenylethyl)-3H-spiro[2-benzofuran-1,4'-piperidine]], the IC50 was 2.9 nM.

In turn, `c1ccc2c(c1)COC21CCN(CCCOC2CCCCC2)CC1` [1'-(3-cyclohexyloxypropyl)-3H-spiro[2-benzofuran-1,4'-piperidine]] had an IC50 of 0.07 nM.

For the compound `c1ccc2c(c1)COC21CCN(CCCCC2CCCCC2)CC1` [1'-(cyclohexylbutyl)-3H-spiro[2-benzofuran-1,4'-piperidine]], the IC50 was 0.07 nM.

In the case of `Fc1ccc(-n2cc(CCCCN3CCC4(CC3)OCc3c(C(F)(F)F)cccc34)c3ccccc32)cc1` [1'-{4-[1-(4-fluorophenyl)-1H-3-indolyl]butyl}-4-trifluoromethylspiro[1,3-dihydroisobenzofuran-1,4'-(hexahydropyridine)]], the IC50 worked out at 2.6 nM.

For `Fc1ccc(-n2cc(CCCCN3CCC4(CC3)SCc3ccccc34)c3ccccc32)cc1` [1'-{4-[1-(4-fluorophenyl)-1H-3-indolyl]butyl}spiro[1,3-dihydrobenzo[c]thiophene-1,4'-(hexahydropyridine)]], the IC50 was 0.14 nM.

`Fc1ccc(-n2cc(CCCCN3CCC4(CC3)Cc3ccccc3O4)c3ccccc32)cc1` [1'-{4-[1-(4-fluorophenyl)-1H-3-indolyl]butyl}spiro[2,3-dihydrobenzo[b]furan-2,4'-(hexahydropyridine)]] displayed an IC50 of 340 nM.

The compound `Fc1ccc(-n2cc(CCCCN3CCC4(CC3)COc3ccccc34)c3ccccc32)cc1` [1'-{4-[1-(4-fluorophenyl)-1H-3-indolyl]butyl}spiro[2,3-dihydrobenzo[b]furan-3,4'-(hexahydropyridine)]] registered an IC50 of 12 nM.

In turn, `Fc1ccc(-n2cc(CCCCN3CCC4(CC3)OCCc3ccccc34)c3ccccc32)cc1` [1'-{4-[1-(4-fluorophenyl)-1H-3-indolyl]butyl}spiro[3,4-dihydro-1H-isochromene-1,4'-(hexahydropyridine)]] gave an IC50 of 0.9 nM.

Compound `Fc1ccc(-n2cc(CCCCN3CCC4(CC3)Cc3ccccc3CO4)c3ccccc32)cc1` [1'-{4-[1-(4-fluorophenyl)-1H-3-indolyl]butyl}spiro[3,4-dihydro-1H-isochromene-3,4'-(hexahydropyridine)]] gave an IC50 of 1.1 nM.

In the case of `Fc1ccc(-n2cc(CCCCN3CCC4(CC3)COCc3ccccc34)c3ccccc32)cc1` [1'-{4-[1-(4-fluorophenyl)-1H-3-indolyl]butyl}spiro[3,4-dihydro-1H-isochromene-4,4'-(hexahydropyridine)]], the IC50 was 0.34 nM.

Compound `Fc1ccc(-n2cc(CCCCN3CCC4(CC3)COc3ccccc3C4)c3ccccc32)cc1` [1'-{4-[1-(4-fluorophenyl)-1H-3-indolyl]butyl}spiro[3,4-dihydro-2H-chromene-3,4'-(hexahydropyridine)]] had an IC50 of 250 nM.

Compound `Fc1ccc(-n2cc(CCCCN3CCC4(CCOc5ccccc54)CC3)c3ccccc32)cc1` [1'-{4-[1-(4-fluorophenyl)-1H-3-indolyl]butyl}spiro[3,4-dihydro-2H-chromene-4,4'-(hexahydropyridine)]] registered an IC50 of 3 nM.

Take `Fc1ccc(-n2cc(CCCCN3CCC4(CC3)Oc3ccccc3O4)c3ccccc32)cc1` [1'-{4-[1-(4-fluorophenyl)-1H-3-indolyl]butyl}spiro[benzo[d][1,3]dioxole-2,4'-(hexahydropyridine)]]: the IC50 came to 270 nM.

In turn, `Fc1ccc(-n2cc(CCCCN3CCC4(CC3)OCc3c(F)cccc34)c3ccccc32)cc1` [1-[1-(4-fluorophenyl)-1H-3-indolyl]-4-[4-fluorospiro[1,3-dihydroisobenzofuran-1,4'-(hexahydropyridine)]-1-yl]butane] displayed an IC50 of 1.8 nM.

The compound `Fc1ccc(-n2cc(CCCCN3CCC4(CC3)OCc3cccc(F)c34)c3ccccc32)cc1` [1-[1-(4-fluorophenyl)-1H-3-indolyl]-4-[7-fluorospiro[1,3-dihydroisobenzofuran-1,4'-(hexahydropyridine)]-1-yl]butane] returned an IC50 of 0.58 nM.

Usually IC50 stands for the concentration that inhibits the measured activity by half. Lower therefore signals greater potency.

Source of the values: BindingDB's records for doi:10.1021/jm00011a020 (H. Lundbeck, 1995).
